In ChEMBL document CHEMBL1139656, “Aminoalkyl phenyl sulfones--a novel series of 5-HT7 receptor ligands” (Bioorg Med Chem Lett, 2006):

Legend:
[1] = molecular target: T1, 5-hydroxytryptamine receptor 7 (Homo sapiens, UniProt P34969); test: Displacement of [3H]5-HT from the cloned human 5-HT7 receptor expressed in CHO cells; type: cell-based
[2] = molecular target: T2, 5-hydroxytryptamine receptor 1A (Homo sapiens, UniProt P08908); test: Displacement of [3H]5-HT from the cloned human 5-HT1A receptor expressed in HeLa cells; type: cell-based
T2 sequence (P08908 whole entry): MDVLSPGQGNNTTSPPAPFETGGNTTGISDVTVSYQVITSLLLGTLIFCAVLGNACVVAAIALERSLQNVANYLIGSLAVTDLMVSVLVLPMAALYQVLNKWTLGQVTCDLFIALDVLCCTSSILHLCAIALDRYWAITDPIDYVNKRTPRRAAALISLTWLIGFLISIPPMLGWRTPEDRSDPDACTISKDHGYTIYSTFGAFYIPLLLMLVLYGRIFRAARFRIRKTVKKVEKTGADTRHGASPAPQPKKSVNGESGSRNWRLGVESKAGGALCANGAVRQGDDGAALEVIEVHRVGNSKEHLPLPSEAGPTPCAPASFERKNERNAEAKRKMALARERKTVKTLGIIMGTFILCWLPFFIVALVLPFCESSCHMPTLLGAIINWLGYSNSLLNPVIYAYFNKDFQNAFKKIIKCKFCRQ

[3] = molecular target: 5-hydroxytryptamine receptor 2A (Homo sapiens, UniProt P28223); test: Displacement of [3H]ketanserin from the cloned human 5-HT2A receptor expressed in CHO cells; type: cell-based
Sequence of 5-hydroxytryptamine receptor 2A (P28223 whole entry): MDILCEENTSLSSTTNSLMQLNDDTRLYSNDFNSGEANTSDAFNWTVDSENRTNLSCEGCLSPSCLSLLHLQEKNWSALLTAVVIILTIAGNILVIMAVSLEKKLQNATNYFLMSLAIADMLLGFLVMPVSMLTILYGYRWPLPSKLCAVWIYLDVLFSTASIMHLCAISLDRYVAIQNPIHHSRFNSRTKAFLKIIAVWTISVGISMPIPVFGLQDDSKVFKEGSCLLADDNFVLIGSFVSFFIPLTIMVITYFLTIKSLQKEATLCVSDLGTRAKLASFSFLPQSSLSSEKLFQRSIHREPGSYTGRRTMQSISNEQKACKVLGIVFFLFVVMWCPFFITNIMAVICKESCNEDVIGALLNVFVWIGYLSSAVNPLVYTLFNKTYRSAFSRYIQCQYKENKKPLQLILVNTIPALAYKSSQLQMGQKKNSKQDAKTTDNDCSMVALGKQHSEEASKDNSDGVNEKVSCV

[4] = molecular target: T1, 5-hydroxytryptamine receptor 7; test: Activity towards human 5-HT7 receptor at 10 uM relative to 5-CT; type: functional
[5] = molecular target: 5-hydroxytryptamine receptor 1B (Homo sapiens, UniProt P28222); test: Displacement of [3H]5-HT from the cloned human 5-HT1B receptor expressed in CHO cells; type: cell-based
Sequence of 5-hydroxytryptamine receptor 1B (P28222 whole entry): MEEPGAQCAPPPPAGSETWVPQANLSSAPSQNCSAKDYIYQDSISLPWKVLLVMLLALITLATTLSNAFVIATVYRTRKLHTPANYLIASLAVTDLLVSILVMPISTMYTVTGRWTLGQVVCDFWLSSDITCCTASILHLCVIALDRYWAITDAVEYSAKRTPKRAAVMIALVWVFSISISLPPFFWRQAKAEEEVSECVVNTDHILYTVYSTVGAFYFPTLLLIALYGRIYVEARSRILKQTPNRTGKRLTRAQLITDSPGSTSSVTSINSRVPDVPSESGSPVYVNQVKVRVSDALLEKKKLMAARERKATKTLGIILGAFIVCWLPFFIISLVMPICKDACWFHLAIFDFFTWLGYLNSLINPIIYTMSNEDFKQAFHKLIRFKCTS

[6] = molecular target: D(2) dopamine receptor (Homo sapiens, UniProt P14416); test: Displacement of [3H]spiperone from the cloned human D2 receptor expressed in CHO cells; type: cell-based
Sequence of D(2) dopamine receptor (P14416 whole entry): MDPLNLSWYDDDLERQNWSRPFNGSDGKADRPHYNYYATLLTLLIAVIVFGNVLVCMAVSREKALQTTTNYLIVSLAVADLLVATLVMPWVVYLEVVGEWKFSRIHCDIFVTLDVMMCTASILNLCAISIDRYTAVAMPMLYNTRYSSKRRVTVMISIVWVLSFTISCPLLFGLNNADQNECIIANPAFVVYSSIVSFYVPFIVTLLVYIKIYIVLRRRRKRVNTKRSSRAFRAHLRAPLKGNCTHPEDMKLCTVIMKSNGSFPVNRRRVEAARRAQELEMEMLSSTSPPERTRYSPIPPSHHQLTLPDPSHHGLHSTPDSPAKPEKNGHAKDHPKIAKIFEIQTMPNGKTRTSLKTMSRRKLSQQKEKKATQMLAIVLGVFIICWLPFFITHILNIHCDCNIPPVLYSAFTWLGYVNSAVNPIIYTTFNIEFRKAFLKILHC

[7] = molecular target: T3, Adrenergic receptor alpha-1 (Rattus norvegicus, UniProt P15823+P23944+P43140); test: Displacement of [3H]prazosin from alpha-1 adrenergic receptor in rat cortex
T3 sequence (P15823 whole entry): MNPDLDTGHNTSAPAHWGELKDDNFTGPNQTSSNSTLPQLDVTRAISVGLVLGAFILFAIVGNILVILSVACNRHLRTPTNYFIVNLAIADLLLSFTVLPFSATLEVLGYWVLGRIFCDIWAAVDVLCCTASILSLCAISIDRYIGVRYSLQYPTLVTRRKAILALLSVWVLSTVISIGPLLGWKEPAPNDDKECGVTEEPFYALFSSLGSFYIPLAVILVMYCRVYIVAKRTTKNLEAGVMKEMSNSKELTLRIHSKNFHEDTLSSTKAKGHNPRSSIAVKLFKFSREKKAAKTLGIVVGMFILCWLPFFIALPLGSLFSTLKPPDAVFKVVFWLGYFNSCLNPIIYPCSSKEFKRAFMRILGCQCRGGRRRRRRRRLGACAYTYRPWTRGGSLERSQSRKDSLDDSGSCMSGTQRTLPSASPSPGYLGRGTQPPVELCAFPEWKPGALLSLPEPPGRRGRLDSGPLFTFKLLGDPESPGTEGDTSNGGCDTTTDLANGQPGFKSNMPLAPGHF
T3 sequence (P23944 whole entry): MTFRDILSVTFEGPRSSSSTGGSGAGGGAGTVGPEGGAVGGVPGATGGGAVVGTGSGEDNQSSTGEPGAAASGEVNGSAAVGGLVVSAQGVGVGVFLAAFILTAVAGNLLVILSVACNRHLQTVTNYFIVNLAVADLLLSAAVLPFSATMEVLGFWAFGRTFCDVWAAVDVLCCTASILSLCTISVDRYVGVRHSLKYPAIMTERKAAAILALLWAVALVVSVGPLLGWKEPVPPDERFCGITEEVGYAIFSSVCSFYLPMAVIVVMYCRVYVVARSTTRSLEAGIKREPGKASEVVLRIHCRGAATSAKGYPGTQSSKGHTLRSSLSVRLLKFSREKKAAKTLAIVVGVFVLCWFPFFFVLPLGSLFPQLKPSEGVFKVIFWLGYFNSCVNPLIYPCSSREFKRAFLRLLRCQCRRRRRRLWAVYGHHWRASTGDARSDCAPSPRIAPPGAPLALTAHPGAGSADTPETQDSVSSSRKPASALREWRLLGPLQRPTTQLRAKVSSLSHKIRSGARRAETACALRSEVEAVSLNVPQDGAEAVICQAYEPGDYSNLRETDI
T3 sequence (P43140 whole entry): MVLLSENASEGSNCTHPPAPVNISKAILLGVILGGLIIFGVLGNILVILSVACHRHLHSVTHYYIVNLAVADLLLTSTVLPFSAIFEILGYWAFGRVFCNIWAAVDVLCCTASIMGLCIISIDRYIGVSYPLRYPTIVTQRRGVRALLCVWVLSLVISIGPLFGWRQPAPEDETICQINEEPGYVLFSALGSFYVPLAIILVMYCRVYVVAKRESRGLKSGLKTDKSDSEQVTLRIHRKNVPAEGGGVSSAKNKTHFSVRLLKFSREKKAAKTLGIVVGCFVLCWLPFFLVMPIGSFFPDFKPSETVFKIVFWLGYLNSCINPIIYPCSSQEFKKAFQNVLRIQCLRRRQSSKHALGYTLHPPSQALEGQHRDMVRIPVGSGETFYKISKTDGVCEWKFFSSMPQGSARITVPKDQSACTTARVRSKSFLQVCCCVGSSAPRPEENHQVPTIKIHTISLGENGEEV

[8] = molecular target: Voltage-gated inwardly rectifying potassium channel KCNH2 (Homo sapiens, UniProt Q12809); test: Displacement of [35S]-labeled MK-499 from cloned human ERG receptor expressed in HEK cells; type: cell-based, HEK293
Sequence of Voltage-gated inwardly rectifying potassium channel KCNH2 (Q12809 whole entry): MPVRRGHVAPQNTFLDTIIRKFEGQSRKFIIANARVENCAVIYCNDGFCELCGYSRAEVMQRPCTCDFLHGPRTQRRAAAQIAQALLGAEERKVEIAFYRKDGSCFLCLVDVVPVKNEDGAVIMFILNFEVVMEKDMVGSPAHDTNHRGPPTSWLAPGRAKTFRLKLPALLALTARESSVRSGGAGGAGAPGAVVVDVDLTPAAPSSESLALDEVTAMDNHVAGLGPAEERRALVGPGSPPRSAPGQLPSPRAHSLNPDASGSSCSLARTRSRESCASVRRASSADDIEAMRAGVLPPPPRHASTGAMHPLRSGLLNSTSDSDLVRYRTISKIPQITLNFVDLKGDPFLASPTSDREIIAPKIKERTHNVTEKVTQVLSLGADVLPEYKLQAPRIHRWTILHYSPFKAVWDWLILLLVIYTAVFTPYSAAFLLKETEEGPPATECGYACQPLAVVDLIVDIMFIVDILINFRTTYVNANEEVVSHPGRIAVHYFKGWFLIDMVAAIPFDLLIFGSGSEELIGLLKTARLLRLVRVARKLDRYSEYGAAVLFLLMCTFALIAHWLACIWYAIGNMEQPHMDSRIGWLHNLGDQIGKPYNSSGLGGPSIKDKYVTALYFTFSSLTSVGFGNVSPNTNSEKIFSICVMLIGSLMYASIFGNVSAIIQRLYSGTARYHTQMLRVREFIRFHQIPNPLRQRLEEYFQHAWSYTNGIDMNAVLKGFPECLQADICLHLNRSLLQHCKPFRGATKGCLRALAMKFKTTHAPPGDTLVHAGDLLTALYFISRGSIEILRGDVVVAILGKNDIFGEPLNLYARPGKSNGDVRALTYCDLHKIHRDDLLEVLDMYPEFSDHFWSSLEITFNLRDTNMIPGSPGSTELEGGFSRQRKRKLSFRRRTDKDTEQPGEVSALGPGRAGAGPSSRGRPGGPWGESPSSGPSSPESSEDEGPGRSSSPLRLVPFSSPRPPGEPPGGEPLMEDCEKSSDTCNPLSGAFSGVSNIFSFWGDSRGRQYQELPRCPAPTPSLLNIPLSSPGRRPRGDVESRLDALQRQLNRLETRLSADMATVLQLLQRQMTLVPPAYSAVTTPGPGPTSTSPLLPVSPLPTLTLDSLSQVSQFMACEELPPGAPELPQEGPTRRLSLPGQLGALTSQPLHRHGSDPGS

T1 sequence (P34969 whole entry): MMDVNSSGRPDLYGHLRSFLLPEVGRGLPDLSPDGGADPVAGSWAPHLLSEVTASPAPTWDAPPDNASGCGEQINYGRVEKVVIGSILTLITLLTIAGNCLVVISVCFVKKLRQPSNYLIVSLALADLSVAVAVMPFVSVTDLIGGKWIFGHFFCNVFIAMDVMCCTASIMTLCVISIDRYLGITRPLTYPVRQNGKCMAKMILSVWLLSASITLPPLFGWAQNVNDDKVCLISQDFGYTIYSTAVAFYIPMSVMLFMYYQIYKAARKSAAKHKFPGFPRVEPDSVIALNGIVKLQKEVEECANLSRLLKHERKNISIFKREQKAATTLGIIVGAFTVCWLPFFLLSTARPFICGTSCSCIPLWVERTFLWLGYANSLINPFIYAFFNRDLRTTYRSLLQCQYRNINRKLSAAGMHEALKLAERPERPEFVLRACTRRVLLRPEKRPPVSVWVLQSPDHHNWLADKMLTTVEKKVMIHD

Row | Ki [1] | Ki [2] | Ki [3] | Activity [4] | Ki [5] | Ki [6] | Ki [7] | SMILES | Ki [8]
1 | > 7000 nM | – | – | – | – | – | – | O=S(=O)(c1ccccc1)C1(CCCN2CCOCC2)CCC1 | –
2 | 455 nM | – | – | – | – | – | – | CCOC(=O)[C@H]1CCCN(CCCC(C)(C)S(=O)(=O)c2ccccc2)C1 | –
3 | 8 nM | 35 nM | 65 nM | 5% | – | – | – | O=S(=O)(c1ccccc1)C1(CCCN2CCc3ccccc3C2)CCC1 | –
4 | 8 nM | 1500 nM | 2000 nM | 83% | > 7000 nM | 900 nM | 3900 nM⁻¹ | CC(C)(CCCN1CC[C@@H]2CCCC[C@H]2C1)S(=O)(=O)c1ccccc1 (racemic) | > 4000 nM
5 | 26 nM | – | – | – | – | – | – | O=S(=O)(c1ccccc1)C1(CCCN2CCC(c3ccccc3)CC2)CCC1 | –
6 | 6 nM | 210 nM | 570 nM | 39% | – | – | – | O=S(=O)(c1ccccc1)C1(CCCN2CCC3CCCCC3C2)CCC1 (racemic) | –
7 | 96 nM | – | – | – | – | – | – | O=S(=O)(CCCCN1CCC2CCCCC2C1)c1ccccc1 (racemic) | –
8 | 7 nM | 400 nM | 1800 nM | 0% | 7700 nM | 220 nM | 540 nM⁻¹ | CC(C)(CCCN1CCCC(c2ccccc2)C1)S(=O)(=O)c1ccccc1 (racemic) | > 5000 nM
9 | 54 nM | > 7000 nM | > 2000 nM | 0% | > 7000 nM | > 1000 nM | > 4000 nM⁻¹ | CC(C)(CCCN1CCCC(C(F)(F)F)C1)S(=O)(=O)c1ccccc1 (racemic) | > 5000 nM
10 | 5800 nM | – | – | – | – | – | – | CN1CCN(CCCC2(S(=O)(=O)c3ccccc3)CCC2)CC1 | –
11 | 2700 nM | – | – | – | – | – | – | O=S(=O)(c1ccccc1)C1(CCCN2CCCCC2)CCC1 | –
12 | 13 nM | – | – | – | – | – | – | O=S(=O)(c1ccccc1)C1(CCCCN2CCC(c3ccccc3)C2)CCC1 (racemic) | –
13 | 15 nM | > 7000 nM | > 1000 nM | 12% | > 5000 nM | 1500 nM | > 4000 nM⁻¹ | CC(C)(CCCN1CCCC(c2cnco2)C1)S(=O)(=O)c1ccccc1 (racemic) | > 8000 nM
14 | > 7000 nM | – | – | – | – | – | – | CN(C)CCCC1(S(=O)(=O)c2ccccc2)CCC1 | –
15 | 550 nM | – | – | – | – | – | – | CC1CCN(CCCC2(S(=O)(=O)c3ccccc3)CCC2)CC1 | –
16 | 53 nM | – | – | – | – | – | – | O=S(=O)(c1ccccc1)C1(CCN2CCC(c3ccccc3)C2)CCC1 (racemic) | –
17 | 9 nM | – | – | – | – | – | – | O=S(=O)(c1ccccc1)C1(CCCN2CCC(c3ccccc3)C2)CCC1 (racemic) | –
18 | 22 nM | – | – | – | – | – | – | O=S(=O)(c1ccccc1)C1(CCCN2CCN(c3ccccc3)CC2)CCC1 | –
19 | 24 nM | 2400 nM | 1870 nM | 0% | > 7000 nM | 710 nM | > 4000 nM⁻¹ | CCOC(=O)[C@@H]1CCCN(CCCC(C)(C)S(=O)(=O)c2ccccc2)C1 | –
